Reference: the NIST ThermoML archive (doi:10.1016/j.jct.2014.01.012)

Test: xn = mol fraction of the nth substance listed
Details: 101 kPa, Liquid

CCCCCCCC[n+]1ccn(C)c1.F[P-](F)(F)(F)(F)F [1-octyl-3-methylimidazolium hexafluorophosphate] + CCOC(C)=O
Details	mass density [kg/m3]	speed of sound [m/s]
293.15 K, x1 = 0.1056	992.13	1246.8
293.15 K, x1 = 0.2064	1052.79	1300.8
293.15 K, x1 = 0.308	1097.25	1323
293.15 K, x1 = 0.4094	1130.77	1339
293.15 K, x1 = 0.4991	1154.21	1349
293.15 K, x1 = 0.5916	1174.12	1356.8
293.15 K, x1 = 0.694	1192.49	1363.1
293.15 K, x1 = 0.8121	1210.2	1368.1
293.15 K, x1 = 0.8895	1220.31	1374.2
293.15 K, x1 = 1	1222.81	1388.2
298.15 K, x1 = 0.1056	987.426	1228.2
298.15 K, x1 = 0.2064	1048.5	1284.8
298.15 K, x1 = 0.308	1093.04	1303.4
298.15 K, x1 = 0.4094	1126.53	1325
298.15 K, x1 = 0.4991	1150	1335.1
298.15 K, x1 = 0.5916	1169.99	1342.7
298.15 K, x1 = 0.694	1188.53	1348.9
298.15 K, x1 = 0.8121	1206.48	1353.8
298.15 K, x1 = 0.8895	1216.63	1358.3
298.15 K, x1 = 1	1218.9	1373.4
303.15 K, x1 = 0.1056	982.485	1209.8
303.15 K, x1 = 0.2064	1044	1268.9
303.15 K, x1 = 0.308	1088.65	1288.2
303.15 K, x1 = 0.4094	1122.2	1309
303.15 K, x1 = 0.4991	1145.83	1320.9
303.15 K, x1 = 0.5916	1166.01	1328.6
303.15 K, x1 = 0.694	1184.79	1334.7
303.15 K, x1 = 0.8121	1202.87	1339.7
303.15 K, x1 = 0.8895	1212.97	1345.2
303.15 K, x1 = 1	1214.96	1359.3
308.15 K, x1 = 0.1056	977.389	1191.5
308.15 K, x1 = 0.2064	1039.34	1253
308.15 K, x1 = 0.308	1084.23	1273.5
308.15 K, x1 = 0.4094	1117.99	1298
308.15 K, x1 = 0.4991	1141.76	1306.3
308.15 K, x1 = 0.5916	1162.11	1314.2
308.15 K, x1 = 0.694	1180.99	1320.5
308.15 K, x1 = 0.8121	1199.1	1325.6
308.15 K, x1 = 0.8895	1209.17	1331.3
308.15 K, x1 = 1	1211.13	1345.8
313.15 K, x1 = 0.1056	972.526	1173.3
313.15 K, x1 = 0.2064	1034.74	1237.5
313.15 K, x1 = 0.308	1079.71	1258.3
313.15 K, x1 = 0.4094	1113.66	1282
313.15 K, x1 = 0.4991	1137.66	1292.8
313.15 K, x1 = 0.5916	1158.28	1300.8
313.15 K, x1 = 0.694	1177.41	1307.2
313.15 K, x1 = 0.8121	1195.57	1312.3
313.15 K, x1 = 0.8895	1205.55	1318.4
313.15 K, x1 = 1	1207.33	1332.7
318.15 K, x1 = 0.1056	967.143	1155.2
318.15 K, x1 = 0.2064	1029.94	1222.1
318.15 K, x1 = 0.308	1075.23	1243.5
318.15 K, x1 = 0.4094	1109.39	1268
318.15 K, x1 = 0.4991	1133.54	1279.3
318.15 K, x1 = 0.5916	1154.33	1287.5
318.15 K, x1 = 0.694	1173.67	1294
318.15 K, x1 = 0.8121	1192.1	1299.2
318.15 K, x1 = 0.8895	1202.11	1305.2
318.15 K, x1 = 1	1203.5	1320.1
323.15 K, x1 = 0.1056	962.069	1132.4
323.15 K, x1 = 0.2064	1025.26	1206.9
323.15 K, x1 = 0.308	1070.7	1229.1
323.15 K, x1 = 0.4094	1105.03	1250
323.15 K, x1 = 0.4991	1129.38	1265.9
323.15 K, x1 = 0.5916	1150.44	1274.2
323.15 K, x1 = 0.694	1170.05	1280.9
323.15 K, x1 = 0.8121	1188.56	1286.3
323.15 K, x1 = 0.8895	1198.5	1292.2
323.15 K, x1 = 1	1199.67	1307.7
